Test system: subjects with COPD
Test: Phase IIa placebo-controlled crossover dose-ranging study, heart rate (vital signs) after single inhaled dose
Format: in vivo, human
Settings: for Adjusted Mean for Average Change in Heart Rate from Test day Baseline: ANCOVA
Method: The study was a Phase IIa, multi-centre, randomised, double-blind, placebo-controlled, crossover, dose-ranging study using four dose levels of glycopyrronium bromide in subjects with COPD. A total of 40 subjects were required to complete the study.
Subjects were randomised to receive a single inhaled dose of 20, 125, 250 and 400 μg of glycopyrronium bromide in ascending order, with a placebo dose randomised into the sequence over 5 study visits. Subjects were randomised to receive treatment on Study Day 1 prior to dosing. All doses, including placebo, were administered using the Miat Monohaler.
The Treatment period then consisted of five study visits (separated by a 5-14-day wash-out period), during which subjects were dosed with a single inhaled dose of glycopyrronium bromide using a Miat Monohaler, in ascending order (20, 125, 250 or 400 μg). A placebo was randomly administered (using a Miat Monohaler) at one of the study visits; subsequent visits continued with the next highest dose of glycopyrronium bromide to that which was administered prior to the placebo.
All subjects were scheduled to be dosed between 08:00 and 10:00 am. For individual subjects, dosing was at the same time of day (±30 minutes). At each dosing visit, subjects received a single dose of glycopyrronium bromide or placebo administered via Miat Monohaler. Each different dose (20, 125, 250 or 400 μg) was contained in one capsule. An appropriate number of Miat Monohalers to conduct the study was also supplied to the site. A new Miat Monohaler was used to administer each dose at each visit.
copyrronium bromide was presented in size 3, white opaque, hard, gelatin capsules packaged in aluminium pouches. The capsules were presented in four dose strengths containing 20, 125, 250, or 400 μg glycopyrronium bromide. In addition to glycopyrronium bromide, excipient present in the capsule formulation consisted of the PowderHale^TM formulation of lactose and magnesium stearate.
All vital signs were measured on each study day, including heart rate (with the subject semi-supine for 5 minutes prior to measurement); blood pressure; respiratory rate and temperature were measured at each visit and before receiving study medication (pre-treatment), if applicable. Blood pressure and heart rate were also measured at 45, 90 minutes and 5, 10, 20 and 30 hours post-treatment on study days.
The statistical analyses were to be reported using summary tables and data listings. Statistical tests for the evaluation were to be performed at the 0.05 significance level using a two-sided test.
All analyses and tabulations were to be performed using SASS Version 6.12 on a PC platform. Continuous variables were to be summarised with sample size (n), mean, standard deviation (SD), minimum, median, and maximum. […] The mean was to have one extra decimal place and the standard deviation was to have two extra decimal places. Categorical variables were to be summarised with number and percentage of subjects.

[1] = 20 μg single inhaled dose, 45 mins post-dose
[2] = 20 μg single inhaled dose, 90 mins post-dose
[3] = 20 μg single inhaled dose, 5 hrs post-dose
[4] = 20 μg single inhaled dose, 10 hrs post-dose
[5] = 20 μg single inhaled dose, 20 hrs post-dose
[6] = 20 μg single inhaled dose, 30 hrs post-dose
[7] = 20 μg single inhaled dose, pre-dose to 45 mins post-dose
[8] = 20 μg single inhaled dose, pre-dose to 90 mins post-dose
[9] = 20 μg single inhaled dose, pre-dose to 5 hours post-dose
[10] = 20 μg single inhaled dose, pre-dose to 10 hours post-dose
[11] = 20 μg single inhaled dose, pre-dose to 20 hours post-dose
[12] = 125 μg single inhaled dose, 45 mins post-dose
[13] = 125 μg single inhaled dose, 90 mins post-dose
[14] = 125 μg single inhaled dose, 5 hrs post-dose
[15] = 125 μg single inhaled dose, 10 hrs post-dose
[16] = 125 μg single inhaled dose, 20 hrs post-dose
[17] = 125 μg single inhaled dose, 30 hrs post-dose
[18] = 125 μg single inhaled dose, pre-dose to 45 mins post-dose
[19] = 125 μg single inhaled dose, pre-dose to 90 mins post-dose
[20] = 125 μg single inhaled dose, pre-dose to 5 hours post-dose
[21] = 125 μg single inhaled dose, pre-dose to 10 hours post-dose
[22] = 125 μg single inhaled dose, pre-dose to 20 hours post-dose
[23] = 125 μg single inhaled dose, pre-dose to 30 hours post-dose

Structure (SMILES): C[N+]1(C)CCC(OC(=O)C(O)(c2ccccc2)C2CCCC2)C1 (stereo not drawn) [glycopyrronium bromide]
- Heart Rate Mean [1]: 70.3 bpm
- Heart Rate Median [1]: 68.0 bpm
- Heart Rate Mean [2]: 72.5 bpm
- Heart Rate Median [2]: 71.0 bpm
- Heart Rate Mean [3]: 72.8 bpm
- Heart Rate Median [3]: 74.0 bpm
- Heart Rate Mean [4]: 69.1 bpm
- Heart Rate Median [4]: 68.0 bpm
- Heart Rate Mean [5]: 68.8 bpm
- Heart Rate Median [5]: 69.5 bpm
- Heart Rate Mean [6]: 69.8 bpm
- Heart Rate Median [6]: 70.0 bpm
- Heart Rate Change from Test day Baseline, Mean [7]: −2.5 bpm
- Heart Rate Change from Test day Baseline, Median [7]: −2.0 bpm
- Heart Rate Change from Test day Baseline, Mean [8]: −0.2 bpm
- Heart Rate Change from Test day Baseline, Median [8]: 0.0 bpm
- Heart Rate Change from Test day Baseline, Mean [9]: −0.0 bpm
- Heart Rate Change from Test day Baseline, Median [9]: 1.0 bpm
- Heart Rate Change from Test day Baseline, Mean [10]: −3.4 bpm
- Heart Rate Change from Test day Baseline, Median [10]: −1.0 bpm
- Heart Rate Change from Test day Baseline, Mean [11]: −3.6 bpm
- Heart Rate Change from Test day Baseline, Median [11]: −3.0 bpm
- Heart Rate Change from Test day Baseline, Mean (20 μg single inhaled dose, pre-dose to 30 hours post-dose): −2.7 bpm
- Adjusted Mean for Average Change in Heart Rate from Test day Baseline (20 μg, to 45 mins post-dose): −2.323 bpm
- Dose v Placebo Difference, adjusted mean change in Heart Rate from Test day Baseline (20 μg, to 45 mins post-dose, p-value 0.997): 0.005 bpm
- Adjusted Mean for Average Change in Heart Rate from Test day Baseline (20 μg, to 90 mins post-dose): 0.033 bpm
- Dose v Placebo Difference, adjusted mean change in Heart Rate from Test day Baseline (20 μg, to 90 mins post-dose, p-value 0.489): −1.239 bpm
- Adjusted Mean for Average Change in Heart Rate from Test day Baseline (20 μg, to 5 hours post-dose): 1.933 bpm
- Dose v Placebo Difference, adjusted mean change in Heart Rate from Test day Baseline (20 μg, to 5 hours post-dose, p-value 0.945): −0.114 bpm
- Adjusted Mean for Average Change in Heart Rate from Test day Baseline (20 μg, to 10 hours post-dose): −0.126 bpm
- Dose v Placebo Difference, adjusted mean change in Heart Rate from Test day Baseline (20 μg, to 10 hours post-dose, p-value 0.349): 1.698 bpm
- Adjusted Mean for Average Change in Heart Rate from Test day Baseline (20 μg, to 20 hours post-dose): −4.339 bpm
- Dose v Placebo Difference, adjusted mean change in Heart Rate from Test day Baseline (20 μg, to 20 hours post-dose, p-value 0.068): −2.872 bpm
- Adjusted Mean for Average Change in Heart Rate from Test day Baseline (20 μg, to 30 hours post-dose): −0.880 bpm
- Dose v Placebo Difference, adjusted mean change in Heart Rate from Test day Baseline (20 μg, to 30 hours post-dose, p-value 0.379): −1.499 bpm
- Heart Rate Mean [12]: 65.5 bpm
- Heart Rate Median [12]: 63.5 bpm
- Heart Rate Mean [13]: 67.6 bpm
- Heart Rate Median [13]: 69.0 bpm
- Heart Rate Mean [14]: 70.6 bpm
- Heart Rate Median [14]: 73.0 bpm
- Heart Rate Mean [15]: 67.0 bpm
- Heart Rate Median [15]: 67.0 bpm
- Heart Rate Mean [16]: 66.4 bpm
- Heart Rate Median [16]: 66.0 bpm
- Heart Rate Mean [17]: 72.1 bpm
- Heart Rate Median [17]: 72.0 bpm
- Heart Rate Change from Test day Baseline, Mean [18]: −3.8 bpm
- Heart Rate Change from Test day Baseline, Median [18]: −4.0 bpm
- Heart Rate Change from Test day Baseline, Mean [19]: −1.8 bpm
- Heart Rate Change from Test day Baseline, Median [19]: −2.0 bpm
- Heart Rate Change from Test day Baseline, Mean [20]: 1.2 bpm
- Heart Rate Change from Test day Baseline, Median [20]: 0.5 bpm
- Heart Rate Change from Test day Baseline, Mean [21]: −2.1 bpm
- Heart Rate Change from Test day Baseline, Median [21]: −3.0 bpm
- Heart Rate Change from Test day Baseline, Mean [22]: −2.5 bpm
- Heart Rate Change from Test day Baseline, Median [22]: −1.5 bpm
- Heart Rate Change from Test day Baseline, Mean [23]: 2.8 bpm
- Heart Rate Change from Test day Baseline, Median [23]: 1.0 bpm
- Adjusted Mean for Average Change in Heart Rate from Test day Baseline (125 μg, to 45 mins post-dose): −2.854 bpm
- Dose v Placebo Difference, adjusted mean change in Heart Rate from Test day Baseline (125 μg, to 45 mins post-dose, p-value 0.712): −0.526 bpm
- Adjusted Mean for Average Change in Heart Rate from Test day Baseline (125 μg, to 90 mins post-dose): −0.650 bpm
- Dose v Placebo Difference, adjusted mean change in Heart Rate from Test day Baseline (125 μg, to 90 mins post-dose, p-value 0.240): −1.921 bpm
- Adjusted Mean for Average Change in Heart Rate from Test day Baseline (125 μg, to 5 hours post-dose): 2.382 bpm
- Dose v Placebo Difference, adjusted mean change in Heart Rate from Test day Baseline (125 μg, to 5 hours post-dose, p-value 0.826): 0.335 bpm
- Adjusted Mean for Average Change in Heart Rate from Test day Baseline (125 μg, to 10 hours post-dose): −0.186 bpm
- Dose v Placebo Difference, adjusted mean change in Heart Rate from Test day Baseline (125 μg, to 10 hours post-dose, p-value 0.339): 1.638 bpm
- Adjusted Mean for Average Change in Heart Rate from Test day Baseline (125 μg, to 20 hours post-dose): −1.590 bpm
- Dose v Placebo Difference, adjusted mean change in Heart Rate from Test day Baseline (125 μg, to 20 hours post-dose, p-value 0.932): −0.123 bpm
- Adjusted Mean for Average Change in Heart Rate from Test day Baseline (125 μg, to 30 hours post-dose): 2.796 bpm
- Dose v Placebo Difference, adjusted mean change in Heart Rate from Test day Baseline (125 μg, to 30 hours post-dose, p-value 0.168): 2.177 bpm
- Heart Rate Mean (250 μg single inhaled dose, 45 mins post-dose): 65.1 bpm

— patent US10695321B2, “Use of glycopyrrolate for treating tachycardia” (Heptares Therapeutics Limited, priority 2011, dated 2020)
